pIC50: −log10 of the molar value. Structures can show the parent of a compound that is named as a salt.

T1 sequence (Q00960 27-1482, other chains not shown): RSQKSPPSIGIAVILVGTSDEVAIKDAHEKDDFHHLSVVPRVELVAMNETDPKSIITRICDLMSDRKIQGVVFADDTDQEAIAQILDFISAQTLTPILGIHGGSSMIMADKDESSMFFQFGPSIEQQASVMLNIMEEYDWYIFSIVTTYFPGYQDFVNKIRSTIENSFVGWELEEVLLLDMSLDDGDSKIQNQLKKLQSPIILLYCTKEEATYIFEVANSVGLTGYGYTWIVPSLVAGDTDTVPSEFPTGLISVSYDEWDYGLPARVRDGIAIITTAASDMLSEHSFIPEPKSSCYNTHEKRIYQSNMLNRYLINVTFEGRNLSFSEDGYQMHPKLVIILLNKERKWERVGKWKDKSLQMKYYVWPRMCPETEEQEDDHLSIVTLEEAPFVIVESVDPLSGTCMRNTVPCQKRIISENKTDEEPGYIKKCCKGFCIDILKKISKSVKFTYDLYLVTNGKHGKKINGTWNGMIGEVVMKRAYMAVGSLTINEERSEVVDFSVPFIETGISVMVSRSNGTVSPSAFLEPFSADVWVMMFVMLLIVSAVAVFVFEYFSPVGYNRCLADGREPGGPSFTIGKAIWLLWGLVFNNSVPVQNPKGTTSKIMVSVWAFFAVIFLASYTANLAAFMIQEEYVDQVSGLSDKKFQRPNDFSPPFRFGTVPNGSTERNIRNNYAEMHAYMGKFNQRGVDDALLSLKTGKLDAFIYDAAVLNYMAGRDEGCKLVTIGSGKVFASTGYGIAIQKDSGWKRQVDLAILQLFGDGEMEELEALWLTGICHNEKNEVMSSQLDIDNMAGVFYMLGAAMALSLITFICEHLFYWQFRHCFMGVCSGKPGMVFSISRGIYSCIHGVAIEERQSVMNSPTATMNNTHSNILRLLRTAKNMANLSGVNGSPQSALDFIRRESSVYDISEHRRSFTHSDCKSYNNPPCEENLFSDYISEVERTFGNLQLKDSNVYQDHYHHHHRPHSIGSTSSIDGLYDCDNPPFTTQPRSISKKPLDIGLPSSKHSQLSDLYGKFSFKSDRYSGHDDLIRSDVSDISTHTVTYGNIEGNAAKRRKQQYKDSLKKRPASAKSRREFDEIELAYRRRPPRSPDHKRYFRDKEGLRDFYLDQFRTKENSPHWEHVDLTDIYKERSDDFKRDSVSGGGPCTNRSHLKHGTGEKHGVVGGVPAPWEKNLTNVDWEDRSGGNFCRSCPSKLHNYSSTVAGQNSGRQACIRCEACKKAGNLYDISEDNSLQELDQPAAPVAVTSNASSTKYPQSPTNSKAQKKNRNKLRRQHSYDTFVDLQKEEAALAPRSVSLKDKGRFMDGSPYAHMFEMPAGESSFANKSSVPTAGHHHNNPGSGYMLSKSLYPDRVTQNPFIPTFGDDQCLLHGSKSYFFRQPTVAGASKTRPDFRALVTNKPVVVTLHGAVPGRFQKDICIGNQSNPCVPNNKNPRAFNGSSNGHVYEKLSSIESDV

This assay has as its target T1, NMDA-receptor subtype 2B (Rattus norvegicus, UniProt P35439+Q00960).
T1 construct: Membranes were prepared by homogenization of the whole brain minus cerebellum and medulla oblongata; from tissue; host or cells: rat whole brain minus cerebellum and medulla oblongata (membranes)
As to the kind of experiment: 3H-Ro 25-6981 binding (displacement) on rat brain membranes. The conditions noted are these: displacement of 5 nM 3H-Ro 25-6981, rat whole brain (minus cerebellum and medulla oblongata) membranes, 2 hours at 4° C., Tris-HCl 50 mM pH 7.4. Here is the method: ^3H-Ro 25-6981 binding (Ro 25-6981 is [R-(R*,S*)]-α-(4-hydroxy-phenyl)-β-methyl-4-(phenyl-methyl)-1-piperidine propanol)
Male Füllinsdorf albino rats weighing between 150-200 g were used. Membranes were prepared by homogenization of the whole brain minus cerebellum and medulla oblongata with a Polytron (10.000 rpm, 30 seconds), in 25 volumes of a cold Tris-HCl 50 mM, EDTA 10 mM, pH 7.1 buffer. The homogenate was centrifuged at 48,000 g for 10 minutes at 4° C. The pellet was resuspended using the Polytron in the same volume of buffer and the homogenate was incubated at 37° C. for 10 minutes. After centrifugation the pellet was homogenized in the same buffer and frozen at −80° C. for at least 16 hours but not more than 10 days. For the binding assay the homogenate was thawed at 37° C., centrifuged and the pellet was washed three times as above in a Tris-HCl 5 mM, pH 7.4 cold buffer. The final pellet was resuspended in the same buffer and used at a final concentration of […].
^3H-Ro 25-6981 binding experiments were performed using a Tris-HCl 50 mM, pH 7.4 buffer. For displacement experiments 5 nM of ^3H-Ro 25-6981 were used and non specific binding was measured using 10 mM of tetrahydroisoquinoline and usually it accounts for 10% of the total. The incubation time was 2 hours at 4° C. and the assay was stopped by filtration on Whatmann GF/B glass fiber filters (Unifilter-96, Packard, Zürich, Switzerland). The filters were washed 5 times with cold buffer. The radioactivity on the filter was counted on a Packard Top-coullt microplate scintillation counter after addition of […] of microscint 40 (Canberra Packard S.A., Zürich, Switzerland).
The effects of compounds were measured using a minimum of 8 concentrations and repeated at least once. The pooled normalized values were analyzed using a non-linear regression calculation program which provide IC50 with their relative upper and lower 95% confidence limits.
One may read the pIC50 as −log10 of the IC50, conventionally taken in molar units. In turn, “5-(3-Difluoromethyl-4-fluoro-phenyl)-3-(2-ethyl-imidazol-1-ylethyl)-pyridazine hydrochloride [Example 52]” had a negative-log IC50 (pIC50) of 7.59.
Consider `Cc1nccn1Cc1cc(-c2ccc(F)c(Cl)c2)cnn1` [Example 1, 5-(3-Chloro-4-fluoro-phenyl)-3-(2-methyl-imidazol-1-yl-methyl)-pyridazine Hydrochloride], for which the pIC50 is 7.68.
In the case of `Cc1nccn1Cc1cc(-c2ccc(F)c(C(F)(F)F)c2)cnn1` [Example 3, 5-(4-Fluoro-3-trifluoromethyl-phenyl)-3-(2-methyl-imidazol-1-yl-methyl)-pyridazine hydrochloride] it was 7.42; in that of `Cc1nccn1Cc1cc(-c2ccc(Cl)c(C(F)(F)F)c2)cnn1` [Example 4, 5-(4-Chloro-3-trifluoromethyl-phenyl)-3-(2-methyl-imidazol-1-yl-methyl)-pyridazine hydrochloride], 7.57.
In the case of `Cc1nccn1Cc1cc(-c2ccc(F)c(C(F)F)c2)cnn1` [Example 6, 5-(3-Difluoromethyl-4-fluoro-phenyl)-3-(2-methyl-imidazol-1-yl-methyl)-pyridazine hydrochloride], the pIC50 is 7.77.
As for `Cc1nccn1Cc1cc(-c2cccc(C(C)(F)F)c2)cnn1` [Example 9, 5-[3-(1,1-Difluoro-ethyl)-phenyl]-3-(2-methyl-imidazol-1-yl-methyl)-pyridazine hydrochloride], the figure is 7.47; as for `Cc1nccn1Cc1cc(-c2ccc(F)c(C(C)(F)F)c2)cnn1` [Example 11, 5-[3-(1,1-Difluoro-ethyl)-4-fluoro-phenyl]-3-(2-methyl-imidazol-1-yl-methyl)-pyridazine hydrochloride], 7.54.
For `Cc1nccn1Cc1cc(-c2ccc3ccccc3c2)cnn1` [Example 12, 3-(2-Methyl-imidazol-1-ylmethyl)-5-naphthalen-2-yl-pyridazine-hydrochloride], the pIC50 was 7.66.
Compound `Cc1nccn1Cc1cc(-c2ccc(Cl)c(Cl)c2)cnn1` [Example 13, 5-(3,4-Dichloro-phenyl)-3-(2-methyl-imidazol-1-yl-methyl)-pyridazine hydrochloride] showed a negative logarithm of the IC50 (pIC50) of 7.96.
`Cc1nccn1Cc1cc(-c2cccc(C3CC3)c2)cnn1` [Example 14, 5-(3-Cyclopropyl-phenyl)-3-(2-methyl-imidazol-1-yl-methyl)-pyridazine hydrochloride]: the negative logarithm of the IC50 (pIC50) is 7.70.
For the compound `Cc1nccn1Cc1cc(-c2ccc3sccc3c2)cnn1` [Example 15, 5-Benzo[b]thiophen-5-yl-3-(2-methyl-imidazol-1-yl-methyl)-pyridazine hydrochloride], the negative-log IC50 (pIC50) is 7.80.
Take `Cc1cc(-c2cnnc(Cn3ccnc3C)c2)ccc1F` [Example 16, 5-(4-Fluoro-3-methyl-phenyl)-3-(2-methyl-imidazol-1-yl-methyl)-pyridazine hydrochloride]: the negative logarithm of the IC50 (pIC50) is 8.00.
For the compound `Cc1nccn1Cc1cc(-c2cc(F)cc(C(F)F)c2)cnn1` [Example 24, 5-(3-Difluoromethyl-5-fluoro-phenyl)-3-(2-methyl-imidazol-1-yl-methyl)-pyridazine hydrochloride], the pIC50 was 7.33.
Compound `Cc1nccn1Cc1cc(-c2cccc(C(F)F)c2)cnn1` [Example 25, 5-(3-Difluoromethyl-phenyl)-3-(2-methyl-imidazol-1-yl-methyl)-pyridazine hydrochloride] showed a negative logarithm of the IC50 (pIC50) of 7.24.
The compound `Cc1nccn1Cc1cc(-c2ccc(Cl)c(C(F)F)c2)cnn1` [Example 26, 5-(4-Chloro-3-difluoromethyl-phenyl)-3-(2-methyl-imidazol-1-yl-methyl)-pyridazine hydrochloride] gave a pIC50 of 7.92.
`COc1ccc2cc(-c3cnnc(Cn4ccnc4C)c3)ccc2c1` [Example 27, 5-(6-Methoxy-naphthalen-2-yl)-3-(2-methyl-imidazol-1-yl-methyl)-pyridazine hydrochloride] showed a pIC50 of 7.36.
In turn, `Cc1cc(-c2cnnc(Cn3ccnc3C)c2)ccc1Cl` [Example 30, 5-(4-Chloro-3-methyl-phenyl)-3-(2-methyl-imidazol-1-yl-methyl)-pyridazine hydrochloride] had a pIC50 of 8.15.
For `Cc1nccn1Cc1cc(-c2cc(F)cc(C(C)(F)F)c2)cnn1` [Example 31, 5-[3-(1,1-Difluoro-ethyl)-5-fluoro-phenyl]-3-(2-methyl-imidazol-1-yl-methyl)-pyridazine hydrochloride], the negative logarithm of the IC50 (pIC50) is 7.51.
`Cc1nccn1Cc1cc(-c2cccc(C(C)(C)C)c2)cnn1` [Example 34, 5-(3-tert-Butyl-phenyl)-3-(2-methyl-imidazol-1-yl-methyl)-pyridazine hydrochloride]: the negative-log IC50 (pIC50) was 7.17.
Consider `Cc1nccn1Cc1cc(-c2cccc3ccccc23)cnn1` [Example 35, 3-(2-Methyl-imidazol-1-yl-methyl)-5-naphthalen-1-yl-pyridazine hydrochloride], for which the negative logarithm of the IC50 (pIC50) was 7.60.
`COc1cccc2c(-c3cnnc(Cn4ccnc4C)c3)cccc12` [Example 36, 5-(5-Methoxy-naphthalen-1-yl)-3-(2-methyl-imidazol-1-yl-methyl)-pyridazine hydrochloride] had a pIC50 of 7.11.
As for `COc1cc(-c2cnnc(Cn3ccnc3C)c2)cc(C(F)(F)F)c1` [Example 38, 5-(3-Methoxy-5-trifluoromethyl-phenyl)-3-(2-methyl-imidazol-1-yl-methyl)-pyridazine hydrochloride], the pIC50 was 7.27.
In turn, `Cc1nccn1Cc1cc(-c2ccc(Cl)c(C(C)(F)F)c2)cnn1` [Example 39, 5-[4-Chloro-3-(1,1-difluoro-ethyl)-phenyl]-3-(2-methyl-imidazol-1-yl-methyl)-pyridazine hydrochloride] gave a pIC50 of 7.62.
Turning to `COc1cc(-c2cnnc(Cn3ccnc3C)c2)ccc1Cl` [Example 41, 5-(4-Chloro-3-methoxy-phenyl)-3-(2-methyl-imidazol-1-yl-methyl)-pyridazine hydrochloride], the negative logarithm of the IC50 (pIC50) is 7.39.
In turn, `Cc1nccn1Cc1cc(-c2cccc(C(C)C)c2)cnn1` [Example 42, 5-(3-Isopropyl-phenyl)-3-(2-methyl-imidazol-1-yl-methyl)-pyridazine hydrochloride] showed a pIC50 of 7.32.
Compound `Cc1nccn1Cc1cc(-c2ccc3c4c(cccc24)CC3)cnn1` [Example 45, 5-Acenaphthen-5-yl-3-(2-methyl-imidazol-1-yl-methyl)-pyridazine hydrochloride] had a negative logarithm of the IC50 (pIC50) of 7.24.
In the case of `COc1ccc2ccc(-c3cnnc(Cn4ccnc4C)c3)cc2c1` [Example 48, 5-(7-Methoxy-naphthalen-2-yl)-3-(2-methyl-imidazol-1-yl-methyl)-pyridazine hydrochloride] it was 7.46.
The compound `COc1cc(-c2cnnc(Cn3ccnc3C)c2)c2ccccc2c1` [Example 49, 5-(3-Methoxy-naphthalen-1-yl)-3-(2-methyl-imidazol-1-yl-methyl)-pyridazine hydrochloride] showed a negative-log IC50 (pIC50) of 7.47.
As for `Cc1nccn1Cc1cc(-c2ccc(F)c3ccccc23)cnn1` [Example 50, 5-(4-Fluoro-naphthalen-1-yl)-3-(2-methyl-imidazol-1-yl-methyl)-pyridazine hydrochloride], the pIC50 was 7.54.
`Cc1nccn1Cc1cc(-c2cccc(C(F)(F)F)c2F)cnn1` [Example 58, 5-(2-Fluoro-3-trifluoromethyl-phenyl)-3-(2-methyl-imidazol-1-yl-methyl)-pyridazine hydrochloride] showed a negative logarithm of the IC50 (pIC50) of 7.43.
As for `Cc1nccn1Cc1cc(C2=Cc3ccccc3CC2)cnn1` [Example 68, 5-(3,4-Dihydro-naphthalen-2-yl)-3-(2-methyl-imidazol-1-yl-methyl)-pyridazine hydrochloride], the pIC50 was 7.57.

These data come from patent US7005432B2, “Substituted imidazol-pyridazine derivatives” (Hoffman-La Roche Inc., priority 2002, dated 2006).
